The source of these data is US12589088B2, “Compositions and methods for treating cancer with andrographolide and melatonin combination therapy” (University of Maryland, Baltimore, priority 2020, dated 2026).

For experiment [1], the system named is IRE-1, ATF6, CHOP mRNA. In words: qRT-PCR of ER stress associated genes in HT-29 and HCT-15 cells. Type of experiment: cell-based, human. The conditions noted are these: 5-FU at IC50 dose; for CHOP mRNA expression: AGP 9.3 μM, MLT 0.18 mM alone or combined, 48 h, both cell lines. The method, then:
(§1) FIG. 5. AGP and MLT synergistically induce ER stress-related molecules. HT-29 and HCT-15 cells were treated with AGP, MLT, AGP+MLT, and 5-FU for 48 h as indicated in the methodology section. Transcriptional level of expression of ER stress associated genes was determined by qRT-PCR for A. IRE-1, B. ATF6, and C. CHOP. Bar graphs show quantitative results normalized to GAPDH mRNA levels. Results are from three independent experiments. D. Treated and untreated cells were lysed, and protein expression was determined by immunoblotting for IRE-1, ATF6, phospho-PERK, and GAPDH.
(§2) Gene expression was evaluated as previously described (Banerjee et al., Oncotarget, (2016), 7(27):41432-41444). Primer sequences are listed in Supplementary Table 1. Relative gene expression changes were calculated using the 2^−ΔΔCT method, and expression normalization was accomplished using the housekeeping gene, GAPDH.
(Real-time PCR tracks product formation cycle by cycle.)

The test system of experiment [2] is HT-29. The conditions noted are these: HT-29, previous studies (Lim et al. 2007); read-out: IC50 dose of 5-FU; cited from earlier work.
The subject of experiment [3] is IRE-1, ATF6, phospho-PERK protein. In words: Immunoblotting of ER stress markers in HT-29 and HCT-15 cell lysates. The conditions noted are these: 5-FU treatment group; except IRE-1 protein level in HT-29. Type of experiment: cell-based, human. The protocol:
as §1
(§3) Immunoblotting was performed as previously described (Banerjee, Basu, et al. 2016). The primary antibodies used were against ATF6 (#MA5-16172; Thermo Fisher Scientific) phospho-PERK (Thr 981) (#sc-32577; Santa Cruz biotechnology), IRE-1 (#3294S; Cell Signaling), phospho-VEGFReceptor1/Flt-1 (Y1213) (#AF4170; R&D systems,), total VEGFReceptor1 (R&D systems, #AF321), FoxM1 (R&D systems, #AF3975), and GAPDH (#G8795; Sigma Aldrich). Blots were incubated with HRP-conjugated secondary antibodies followed by enhanced chemiluminescence (ECL) detection. Images were captured using a Syngene G Box digital imager (Frederick, Md.) and results were quantified with densitometry as previously described (Blanchard et al. 2018).
(Immunoblotting shows a protein as a band on a membrane.)

The conditions of experiment [4]: cited from earlier work.
Experiment [5] deals with FoxM1 and phospho-VEGF receptor1 protein. In words: Immunoblotting of angiogenic markers in HT-29 and HCT-15 cell lysates. Type of experiment: cell-based, human. To be noted: vs untreated and single compound groups. The protocol:
(§4) FIG. 6. AGP and MLT synergistically downregulates angiogenic signaling molecules in colon cancer cells. HT-29 (left) and HCT-15 (right) cells were analyzed for A. VEGF165, B. VEGF189, C. VEGF receptor1, D. FoxM1, E. PTTG1 mRNA expression in the presence and absence of AGP, MLT and 5-FU. F. HT-29 and HCT-15 cell lysates were subjected for protein expression as indicated. (G-H). Quantification of FoxM1 was normalized with GAPDH and (I-J). p-VEGF receptor1 was normalized with total VEGF receptor 1. Statistical significance was determined using one-way ANOVA followed Bonferroni test (*P<0.05, **P<0.01, ***P<0.001).
as §3

The test system of experiment [6] is HCT-15. The conditions noted are these: HCT-15, previous studies (Lim et al. 2007); read-out: IC50 dose of 5-FU; cited from earlier work.
Experiment [7] deals with VEGF165, VEGF189, VEGF receptor1, VEGF Receptor2, FoxM1, PTTG1 mRNA. In words: qRT-PCR of angiogenic signaling molecules in HT-29 and HCT-15 cells. Type of experiment: cell-based, human. The protocol: as §4, §2
Experiment [8] concerns Cyclin B1, Prx, Trx. The conditions noted are these: T84 and Colo 205 cell lysates, earlier publication; cited from earlier work.
For experiment [9], the system named is T84 and Colo 205. The conditions noted are these: cited from earlier work.
The target in experiment [10] is Ki-67 in patient derived organoids (PDOD). In words: Ki-67 immunofluorescence in patient derived organoids. Type of experiment: cell-based, human. To be noted: AGP 15 μM, MLT 0.5 mM or both, 48 h; vs untreated. The protocol:
Organoid cells were generated from stage 3 metastatic cancer tissue and cultured as previously described (Blanchard et al., Cell Physiol Biochem, (2018), 48(3):1259-1273; Banerjee et al., Gastroenterology and Hepatology International Journal, (2017), 2(2):1-2; Blanchard et al., Cancers (Basel), (2019), 11(2)). The cultures were passaged when the aggregates reached a diameter of approximately 800 μm. Organoids were treated with 15 μM AGP, 0.5 mM MLT, or both for 48 h. Treated and untreated organoids were subjected to morphological analysis and immunofluorescence for Ki67 expression.
Patient derived organoids were grown in 1:1 mixture of Matrigel and advanced DMEM:F12 (Life Technologies) supplemented with 1× penicillin/streptomycin, lx glutamine, 1×N2, 1×B27, 1 mM N-acetyl-L-cysteine, 20 ng/ml fibroblast growth factor and 50 ng/ml epidermal growth factor at 37° C. on a 4-chambered glass slide. […]
Fluorescence microscopy and colony counting were performed using an inverted fluorescence microscope (Olympus IX-71, Pennsylvania, USA). […] Fluorescence intensity was quantified using ImageJ software version 1.39 (NIH). RGB composite images from control and treated groups were created using Axion Vision rel, 4.6 and analyzed. […]

Experiment [11] has as its system HT-29 cells. In words: MTT cell viability assay with CompuSyn / Chou-Talalay combination index analysis. Type of experiment: cell-based, human. The conditions noted are these: for IC50: Homo sapiens, HT-29, 48 h, median-effect plot, combination = total dose at 1:20, read-out: Dm values for HT-29. The method, then: (§5) Cell cytotoxicity in the presence or absence of AGP and MLT was assessed using the MTT (Sigma Aldrich) assay as previously described (Banerjee et al., Helicobacter, (2016), 21(5):395-404). Cells (1×10^4) were plated in phenol-free complete RPMI media and incubated at 37° C. under 5% CO2 for 24 h. Cells were then simultaneously treated in quadruplicate wells with AGP (0-150 μM), MLT (0-3000 μM) or vehicle controls (0.1% DMSO). The media was replaced with MTT solution for each plate at its respective timepoint (either 24, 48, 72 h) followed by the addition of DMSO to dissolve the formazan crystals. Absorbance at 570 nm was determined using a microplate reader (Model 550, Bio-Rad, USA). The percent cell viability relative to the vehicle control was calculated using the following equation:
(§6) [formula] The IC50 value and slope (m) of the concentration-response curves were calculated using the CompuSyn software developed by Chou and Martin (Tun et al., Mar Drugs, (2019), 17(9): 10.3390/md17090536). Colospheroid Formation Assay
(§7) To determine an upper bound on both the individual doses drugs, we measured maximum cell death (near 0% cell viability). AGP achieved this level at 150 μM and MLT at 3 mM for 48 h (Banerjee et al., Helicobacter, (2016), 21(5):395-404, Reiter et al., Int J Mol Sci, (2017), 18(4), doi: 10.3390/ijms18040843). […] Serial dilution was conducted up to 6 times to anchor the observed cell deaths along the dose range.
(§8) To understand the Combination Index (CI), we first defined the fraction affected (Fa) and its counterpart, fraction unaffected (Fu). In our case, the percentage of viable cells determines the […], and 100—percentage of viable cells determines the Fu. The dose effect curve provides an overview of Fa vs. Dose (FIG. 2A and FIG. 2B). As expected, the individual AGP and MLT dose effect curves cradle the combinational dose effect curve below and above, respectively. This means that the total combinational dose to achieve the same Fa is greater than AGP's dose and less than MLT's dose. However, due to the 1:20 combinational ratio, we require less AGP and MLT absolutely.
(§9) [formula] The ratio between Fa and Fu aids in understanding when a given dose achieves the IC50 value. At 50% cell viability,
(§10) [formula] To linearly scale the datapoints, we also took the log of Dose. In this manner, the x intercept of the Median-Effect plot—also known as Dm—precisely determines the dose required to achieve the IC50 value. Immunoblotting
In general terms: Tetrazolium dyes change colour on reduction, which living cells bring about.

Experiment [12] concerns HCT-15 cells. The description is as above. Type of experiment: cell-based, human. The conditions noted are these: for IC50: Homo sapiens, HCT-15, 48 h, median-effect plot, combination = total dose at 1:20, read-out: Dm values for HCT-15. The method, then: as §5, §6, §7, §8, §9, §10
Experiment [13] deals with HT-29 and HCT-15 cells. In words: MTT cell viability assay, one value given for both cell lines. Type of experiment: cell-based, human. To be noted: for IC50: Homo sapiens. The method, then:
as §5, §6, §7, §8, §9, §10

For experiment [14], the system named is CRC. To be noted: previous studies; read-out: IC50 value of MLT for CRC; cited from earlier work.

Where two headings read alike, the source gives them in different places.

Regarding `O=c1[nH]cc(F)c(=O)[nH]1` [5-FU, 5-Fluorouracil], the “ATF6 mRNA expression” value in experiment [1] (HCT-15) was “induced significant”. Also, the “IRE-1 mRNA expression” value in [1] (HT-29 and HCT-15) is reported as “induced significant”. Besides, in experiment [1], the “CHOP mRNA expression” value is on record as “attenuated”. Besides, in experiment [2], the IC50 was 13 µM. Moreover, the “ER stress marker protein expression” value in experiment [3] is given as “No significant changes”. Also, the “overall response rate to 5-FU in adjuvant treatment” value in experiment [4] (adjuvant treatment) is “less than 15%”. For the same molecule, the “overall response of 5-FU in advanced CRC” value in [4] (advanced CRC) was “about 10%”. Besides, in experiment [5], the FoxM1 protein result is “No further reduction” and the “phospho-VEGF receptor1 protein” value is on record as “No further reduction”. Moreover, in experiment [6], the IC50 was approximately 5 µM. Also, in experiment [7], the “FoxM1 mRNA level” value is on record as “no more significant reduction” and the “PTTG1 mRNA level” value was “no more significant reduction”. For the same molecule, in experiment [7] (both cell lines, vs untreated), the mVEGF165 level result is on record as “increased” and the mVEGF189 level result was “increased”.
`C=C1CC[C@@H]2[C@](C)(CO)[C@H](O)CC[C@@]2(C)[C@@H]1C/C=C1/C(=O)OC[C@H]1O` [AGP, andrographolide]: the “Cyclin B1 expression, AGP alone” value in experiment [8] is given as “suppresses”. The IC50 in [9] (48 h, published results, read-out: IC50 value for AGP as a single therapy) is 45 µM; in experiment [9] (T84 and Colo 205, previous study, read-out: IC50 value of AGP) it was 45 µM; in experiment [11] it was 25.6 µM; in experiment [12], 26.5 µM; in [13] (24 h (stated consistent with 48 h), read-out: IC50 value of AGP) it was 30 µM; in experiment [13] (AGP single dose, 48 h, read-out: IC50 values) it was 30 µM. Further, the “CHOP mRNA expression” value in [1] is given as “Significant CHOP mRNA expression”. Besides, in experiment [10], the Ki-67 expression result is given as “greatly reduced”. Moreover, the “potency of AGP relative to MLT” value in [11] (HT-29, dose-effect curve) was 40 fold; in experiment [12] (HCT-15, dose-effect curve), 26 fold. Also, the “dose achieving maximum cell death (near 0% cell viability)” value in experiment [13] (48 h) came to 150 µM. For the same molecule, the “potency of AGP relative to MLT (basis of 1:20 ratio)” value in [13] (from maximum cell death doses) is on record as 20 times.
Turning to `COc1ccc2[nH]cc(CCNC(C)=O)c2c1` [MLT, melatonin], in [10], the Ki-67 expression result is “greatly reduced”. Besides, the IC50 in [14] was 1000 to 2500 µM; in [11], 1000 µM; in experiment [12], 683 µM; in experiment [13] (MLT single dose, 48 h, read-out: IC50 values), 1000 µM. The “cell number at 24 h” value in experiment [13] (24 h) is “transient increase in the cell number”. Also, in experiment [13] (48 h), the “dose achieving maximum cell death (near 0% cell viability)” value came to 3000 µM.
